Data published in BigSolDB 2.1.

Compound `O=P(c1ccccc1)(c1ccccc1)c1cc(O)ccc1O` has a solubility (mole fraction) (in 2-ethoxyethanol, 299.43 K) of 0.0108, a solubility (mole fraction) (in 2-ethoxyethanol, 303.25 K) of 0.0113 and a solubility (mole fraction) (in 2-ethoxyethanol, 308.24 K) of 0.0124. For the same compound, the solubility (mole fraction) (in 2-ethoxyethanol, 313.46 K) was 0.0137, the solubility (mole fraction) (in 2-ethoxyethanol, 318.15 K) was 0.0154 and the solubility (mole fraction) (in 2-ethoxyethanol, 323.27 K) was 0.0168. For the same compound, the solubility (mole fraction) (in 2-ethoxyethanol, 328.26 K) was 0.018, the solubility (mole fraction) (in 2-ethoxyethanol, 333.45 K) was 0.0198 and the solubility (mole fraction) (in 2-ethoxyethanol, 338.75 K) was 0.0223. For the same compound, the solubility (mole fraction) (in 2-ethoxyethanol, 343.15 K) was 0.0236, the solubility (mole fraction) (in 2-ethoxyethanol, 348.15 K) was 0.0252 and the solubility (mole fraction) (in 2-ethoxyethanol, 353.14 K) was 0.0279. It also gave a solubility (mole fraction) (in 2-ethoxyethanol, 358.06 K) of 0.0295, a solubility (mole fraction) (in 2-ethoxyethanol, 363.15 K) of 0.0316 and a solubility (mole fraction) (in 2-ethoxyethanol, 368.16 K) of 0.0348. It also gave a solubility (mole fraction) (in acetone, 299.45 K) of 0.00175, a solubility (mole fraction) (in acetone, 303.26 K) of 0.00188 and a solubility (mole fraction) (in acetone, 308.24 K) of 0.00216. It also gave a solubility (mole fraction) (in acetone, 313.47 K) of 0.00236, a solubility (mole fraction) (in acetone, 318.13 K) of 0.00262 and a solubility (mole fraction) (in acetone, 323.26 K) of 0.00296. For the same compound, the solubility (mole fraction) (in acetone, 328.25 K) was 0.00332, the solubility (mole fraction) (in ethanol, 293.95 K) was 0.00571 and the solubility (mole fraction) (in ethanol, 298.26 K) was 0.00634. For the same compound, the solubility (mole fraction) (in ethanol, 303.44 K) was 0.00721, the solubility (mole fraction) (in ethanol, 308.26 K) was 0.00787 and the solubility (mole fraction) (in ethanol, 313.45 K) was 0.00903. The solubility (mole fraction) (in ethanol, 318.47 K) was 0.00979, the solubility (mole fraction) (in ethanol, 323.35 K) was 0.0109 and the solubility (mole fraction) (in ethanol, 328.43 K) was 0.0117. The solubility (mole fraction) (in ethanol, 333.35 K) was 0.0127, the solubility (mole fraction) (in methanol, 294.16 K) was 0.00625 and the solubility (mole fraction) (in methanol, 298.35 K) was 0.00707. The solubility (mole fraction) (in methanol, 303.87 K) was 0.00814, the solubility (mole fraction) (in methanol, 308.85 K) was 0.00946 and the solubility (mole fraction) (in methanol, 313.34 K) was 0.0108. For the same compound, the solubility (mole fraction) (in methanol, 318.15 K) was 0.0123, the solubility (mole fraction) (in methanol, 323.56 K) was 0.0138 and the solubility (mole fraction) (in toluene, 293.96 K) was 0.00071. For the same compound, the solubility (mole fraction) (in toluene, 298.25 K) was 0.00075, the solubility (mole fraction) (in toluene, 303.47 K) was 0.00078 and the solubility (mole fraction) (in toluene, 308.24 K) was 0.00082. It also gave a solubility (mole fraction) (in toluene, 313.45 K) of 0.00086, a solubility (mole fraction) (in toluene, 318.43 K) of 0.00089 and a solubility (mole fraction) (in toluene, 323.38 K) of 0.00094. It also gave a solubility (mole fraction) (in toluene, 328.45 K) of 0.00099, a solubility (mole fraction) (in water, 297.16 K) of 0.00011 and a solubility (mole fraction) (in water, 308.15 K) of 0.00012. The solubility (mole fraction) (in water, 313.34 K) was 0.00013, the solubility (mole fraction) (in water, 318.15 K) was 0.00014 and the solubility (mole fraction) (in water, 323.47 K) was 0.00014. For the same compound, the solubility (mole fraction) (in water, 328.46 K) was 0.00015, the solubility (mole fraction) (in water, 333.25 K) was 0.00015 and the solubility (mole fraction) (in water, 338.17 K) was 0.00016. For the same compound, the solubility (mole fraction) (in water, 343.25 K) was 0.00017, the solubility (mole fraction) (in water, 348.36 K) was 0.00017 and the solubility (mole fraction) (in water, 353.14 K) was 0.00018. It also gave a solubility (mole fraction) (in water, 358.13 K) of 0.00018, a solubility (mole fraction) (in water, 363.27 K) of 0.00019 and a solubility (mole fraction) (in water, 368.26 K) of 0.00019.
